From the AptaBench aptamer set (doi:10.1093/nar/gkaf219)

Assays:
Conditions in all cases: 10 mM Tris-HCl, pH 7.4
[1] = test system: DNA aptamer or structured DNA CTTACGACTAGGTGTGGGTCGGCGCTAGGGGCAGGGTAGTCGTAAG
[2] = test system: DNA aptamer or structured DNA GGGACGACGGTTGGCATTGGGTCGGGTGTGGGTGCGGCGTCGTCCC
[3] = test system: DNA aptamer or structured DNA CTTACGACCATGGGTGTTTGCACTAAGTCCGGTTCTTGGTCGTAAG
[4] = test system: DNA aptamer or structured DNA CTTACGACAGTAACGGTGGGTATATGGGATTTATGTTCGTCGTAAG
[5] = test system: DNA aptamer or structured DNA GGGACGACTAGTGCCTTCGCGCTGTGCGGGAATCCGGTTCTGTCGTCCC
[6] = test system: DNA aptamer or structured DNA GGGACGACTAGCCGTGGCGTTGTTCGAGTGCAGCGAGTAGTCGTCCC
[7] = test system: DNA aptamer or structured DNA GGGACGACTAGCCCTAGCGTTGTTCGAGTCCATGAGTAGTCGTCCC
[8] = test system: DNA aptamer or structured DNA GGGACGACCGTTGGCGAGTGTGTCCGGGGACTACAGGGGTCGTCCC
[9] = test system: DNA aptamer or structured DNA GGGACGACGAGGGCACGTCTGTGTGCAGGGTTTCGCGCGTCGTCCC
[10] = test system: DNA aptamer or structured DNA CTTACGACGACCTATTGGGGGGTAGTTATAGTTGGGTGAGTCGTAAG
[11] = test system: DNA aptamer or structured DNA CTTACGACGGGTTCAGAGGGTCAACGGTGGTGTTGTCGTCGTAAG
[12] = test system: DNA aptamer or structured DNA CTTACGACAGGTTCTGAGGAATCAACGTCGGTGTAGTTGTCGTAAG
[13] = test system: DNA aptamer or structured DNA GGGACGACAGCTTGGTTTGGTCGGGGTAGGGTTCGGATGTCGTCCC
[14] = test system: DNA aptamer or structured DNA GGGACGACTGCTTGGGTAGGTCGGGTTTGGGTGCGGCGGTCGTCCC
[15] = test system: DNA aptamer or structured DNA GGGACGACGCCGGCTTTTAGGGGGGGTGTGGGTGGCGAGTCGTCCC
[16] = test system: DNA aptamer or structured DNA GGGACGACGCGCATGTGGTGTCGGTCAGATGGGATGAAGTCGTCCC
[17] = test system: DNA aptamer or structured DNA GGGACGACCCGTAGGGGTACACGCTCTATGGGGGCTGGGTCGTCCC
[18] = test system: DNA aptamer or structured DNA GGGACGACCCGTAGGGGTACACGCTCTATAGGGGCTGGGTCGTCCC
[19] = test system: DNA aptamer or structured DNA GGGACGACGGGAAGGTTGGCAGCGCATCGTCGGGTCACGTCGTCCC
[20] = test system: DNA aptamer or structured DNA GGGACGACATGCGTCGAAAAGACCCCTGAGGGCAGCTGGTCGTCCC
[21] = test system: DNA aptamer or structured DNA CTTACGACCGGTGGGGAGGCCGGAGTTGGGAACGGGGGGTCGTAAG
[22] = test system: DNA aptamer or structured DNA GGGACGACTAGCGCATGCGTTGTTCGAGGATACGAGTAGTCGTCCC
[23] = test system: DNA aptamer or structured DNA GGGACGACTAGCCCGGCGTTGTTCGAGTGCAGCGAGTAGTCGTCCC
[24] = test system: DNA aptamer or structured DNA GGGACGACGCGTACCATGGGTAGTTGCACGTCGTCCAAGTCGTCCC
[25] = test system: DNA aptamer or structured DNA GGGACGACGCGTAGGTTCCCTAGCTGTGCGTCGTTCAAGTCGTCCC
[26] = test system: DNA aptamer or structured DNA GGGACGACAGGGATTCGGTCTTGGAACAAAGGGGCCTCGTCTGTCGTCCC
[27] = test system: DNA aptamer or structured DNA GGGACGACTAGTGCCTTCGCGTTGTACGGGAATCCGGTTCTGTCGTCCC
[28] = test system: DNA aptamer or structured DNA GGGACGACTAGTGCCTTCGCGTTGTTCGGGAATCCGGTTCTGTCGTCCC
[29] = test system: DNA aptamer or structured DNA GGGACGACGGCACGAGGTTATTCGTTGGTTGCACTGCGCTGGGAGGAAGTCGTCCC
[30] = test system: DNA aptamer or structured DNA GGGACGACCGGCTGTCTGGATGCATTGCGCCGGGAACTCGGACGGATGGTCGTCCC
[31] = test system: DNA aptamer or structured DNA GGGACGACTACAGGTCGTGCGTCGCTCGAGTTGGTGAGTGTGTCGTCCC
[32] = test system: DNA aptamer or structured DNA GGGACGACTAGTGCCTTCGTGTTGTTCAGGAATCCGGTTCTGTCGTCCC
[33] = test system: DNA aptamer or structured DNA GGGACGACGGCACGAGGTTATTCGTTGGTTGCACTGCGCTGGGAGGCAGTCGTCCC
[34] = test system: DNA aptamer or structured DNA GGGACGACCGTCCGAGTTTTAGGAGTGGTTGCATTGCGCTGGGAAGAGGTCGTCCC
[35] = test system: DNA aptamer or structured DNA GGGACGACTAGTGCCTTCGTGTTGTTCGGGAATCCGGTTCTGTCGTCCC
Wherever binding call is given: call rule not given here.

binding call [17] | binding call [4] | binding call [10] | binding call [23] | Structure (SMILES) | binding call [2] | binding call [3] | binding call [6] | binding call [7] | binding call [8] | binding call [9] | binding call [13] | binding call [14] | binding call [15] | binding call [12] | binding call [1] | binding call [20] | binding call [16] | binding call [11] | binding call [24] | binding call [18] | other results
 |  |  |  | COC(=O)[C@@H]1C2CCC(C[C@@H]1OC(=O)c1ccccc1)N2C (some centres undefined) | binds | no binding | no binding | no binding | no binding | no binding | binds | no binding | no binding |  |  |  |  |  |  |  | Kd [1]: 315 nM; Kd [4]: 282 nM; binding call [5]: no binding; Kd [10]: 102 nM; Kd [11]: 49 nM; Kd [12]: 22 nM
 |  |  |  | COc1ccc2c3c1O[C@H]1C(=O)CC[C@@]4(O)[C@@H](C2)N(C)CC[C@]314 | no binding |  |  |  |  |  |  |  | no binding | no binding |  |  |  |  |  |  | Kd [16]: 3700 nM; Kd [17]: 500 nM; Kd [18]: 410 nM
 |  |  |  | CC(=O)Oc1ccc2c3c1O[C@H]1[C@@H](OC(C)=O)C=C[C@H]4[C@@H](C2)N(C)CC[C@@]341 | no binding | no binding |  |  |  |  |  |  | no binding |  |  |  |  | no binding |  |  | Kd [19]: 2400 nM; binding call [21]: no binding; Kd [22]: 2670 nM; Kd [23]: 2390 nM; Kd [6]: 2110 nM; Kd [7]: 3310 nM; Kd [24]: 5620 nM; Kd [8]: 1610 nM; Kd [9]: 3760 nM; Kd [20]: 1110 nM; Kd [25]: 3400 nM
 | no binding | no binding |  | NCCc1ccc(O)c(O)c1 |  |  |  |  |  |  |  |  |  | no binding | no binding |  |  | no binding |  |  | binding call [26]: no binding; binding call [5]: no binding; binding call [27]: no binding; binding call [28]: binds; binding call [29]: no binding; binding call [30]: binds; binding call [31]: binds; binding call [32]: binds; binding call [33]: binds; binding call [34]: no binding; binding call [35]: no binding
 | no binding | no binding |  | CC(C)Cc1ccc(C(C)C(=O)O)cc1 (centres undefined) |  |  |  |  |  |  |  |  |  |  |  |  |  |  |  |  | 
no binding | no binding |  | no binding | c1ccc([C@H]2CN3CCSC3=N2)cc1 |  |  | no binding | no binding | no binding |  |  |  |  | no binding | no binding | no binding | no binding | no binding | no binding | no binding | binding call [25]: binds
 |  |  |  | Cc1nnc2n1-c1ccc(Cl)cc1C(c1ccccc1)=NC2 |  |  |  | no binding | no binding | binds | no binding | no binding |  |  | no binding | no binding | binds | no binding |  | no binding | binding call [22]: no binding
no binding | binds | no binding | no binding | Cn1c(=O)c2c(ncn2C)n(C)c1=O |  |  |  |  | no binding |  |  |  |  |  |  |  | binds |  |  | binds | binding call [25]: no binding
no binding | no binding | no binding | no binding | CCN(CC)CC(=O)Nc1c(C)cccc1C |  | no binding |  |  |  |  |  |  |  |  |  |  |  |  | no binding |  | binding call [26]: no binding; binding call [19]: no binding; binding call [21]: no binding; binding call [22]: no binding; binding call [5]: no binding; binding call [32]: no binding; binding call [35]: no binding

Structure (SMILES) | binding call [17] | binding call [4] | binding call [10] | binding call [23] | binding call [2] | binding call [3] | binding call [6] | binding call [7] | binding call [8] | binding call [9] | binding call [13] | binding call [14] | binding call [15] | binding call [12] | binding call [1] | binding call [20] | binding call [16] | binding call [11] | binding call [24] | binding call [18] | other results
CN1C(=O)CN=C(c2ccccc2)c2cc(Cl)ccc21 | no binding |  |  |  |  |  | no binding | no binding | no binding | binds |  |  |  |  | no binding | no binding | binds | no binding |  |  | binding call [19]: no binding
CN[C@@H](C)Cc1ccccc1 |  |  |  | no binding | no binding | no binding | no binding |  |  | no binding | no binding |  | no binding | no binding | no binding | no binding | no binding |  | no binding | no binding | binding call [21]: no binding; Kd [5]: 7500 nM; Kd [28]: 5100 nM; Kd [29]: 3300 nM; Kd [30]: 8900 nM; Kd [33]: 7000 nM; Kd [34]: 4900 nM; binding call [25]: no binding
O=C1CC[C@@]2(O)[C@H]3Cc4ccc(O)c5c4[C@@]2(CCN3CC2CC2)[C@H]1O5 | no binding |  |  | no binding |  |  | no binding | no binding |  | binds | no binding | no binding |  |  |  | no binding |  |  | no binding | no binding | binding call [19]: no binding; binding call [22]: no binding; binding call [27]: no binding; binding call [31]: no binding; binding call [35]: no binding
CCC(=O)C(CC(C)N(C)C)(c1ccccc1)c1ccccc1 (centres undefined) |  |  | no binding |  | binds |  |  |  |  |  | binds | binds | no binding |  |  |  |  |  |  |  | binding call [28]: no binding; binding call [30]: binds; binding call [33]: no binding
